Tests used:
Type in all cases: cell-based, human
[1] = system: GAL4DBD-ABI/VP16AD-PYL, inducible luciferase reporter in HEK293T cells; experiment: Inducible luciferase reporter assay, ABA-responsive system (orthogonality); conditions: treated with IAA or ABA or DMSO for 24 hours
Method: To ensure that IAA and ABA could be used to independently control two histone modification editing events, the orthogonality between these two systems was tested. HEK293T cells were co-transfected with either GAL4DBD-TIR1*/VP16AD-AID (responsive to IAA) or GAL4DBD-ABI/VP16AD-PYL (responsive to ABA), and an inducible luciferase reporter construct. This was followed by treating cells with either IAA or ABA (or DMSO as a control) for 24 hours. […] To test the reversibility of IAA-induced dimerization, in which it was critical to achieve precise temporal control, HEK293T cells were co-transfected with GAL4DBD-TIR1*, VP16AD-AID, and an inducible luciferase expression construct, and then treated cells with 50 μM IAA for 24 hours. Cells were then washed with fresh media without IAA to remove the inducer (or no washing as a control). They were then harvested for luciferase assays after washing.

[2] = system: HBA mRNA in HEK293T cells; experiment: qPCR of HBA mRNA levels; conditions: HBA sgRNAs; ABA vs DMSO
Method: (§1) To determine if the new method can be used to modify H3K27Ac at other gene loci, sgRNAs were designed that target the promoter region of other genes with low expression levels in HEK293T cells, including GRM2, HBA and MYOD1 (Table 1).
(§2) Human embryonic kidney cell HEK293T (American Type Culture Collection, Manassas, Va.) was cultured in Dulbecco's modified Eagle's medium (DMEM) (Gibco) with 10% FBS (Atlanta Biologicals), 1× GlutaMax (Gibco, Thermo Fisher Scientific, Inc., Waltham, Mass.), and 1× penicillin/streptomycin (Pen/Strep; Gibco, Thermo Fisher Scientific, Inc., Waltham, Mass.). Cells (100,000/ml) were plated in 24-well or 10-cm cell culture plate the day before transfection. […]
(§3) Total RNA was extracted using the EZNA Total RNA Kit I (Omega Bio-tek, Inc., Norcross, Ga.). qPCR reactions were performed on cDNA prepared from 1,000 ng of total cellular RNA using the High-Capacity cDNA Reverse Transcription Kit (Applied Biosystems Co., Thermo Fisher Scientific, Inc., Foster City, Calif.). […] Data were analyzed using the SDS software, version 2.4 (Applied Biosystems Co., Thermo Fisher Scientific, Inc., Foster City, Calif.), by the ΔΔCt method: the Ct values of target gene were normalized to Ct values of GAPDH, the folds of target gene expression changes were normalized to experimental controls. Analyzed data are reported as the mean±s.e.m. for biological replicates. […]

[3] = system: GRM2 mRNA in HEK293T cells; experiment: qPCR of GRM2 mRNA levels; conditions: GRM2 sgRNAs; ABA vs DMSO
Method: as §1, §2, §3

[4] = system: MYOD1 locus in HEK293T cells; experiment: ChIP-qPCR of FLAG-ABI-P300 and H3K27Ac at the MYOD1 locus; conditions: MYOD1 sgRNAs; ABA treatment for 48 hours
[5] = system: six off-target genes (RHOC, IRF2BP2, TFAM, HSD3B7, METTL2A, CEP250) in HEK293T cells; experiment: qPCR of mRNA levels of six off-target genes with IL1RN sgRNAs; conditions: 100 μM ABA for 24 hours vs DMSO
Method: FIG. 11. Expression of six off-target genes when induced by ABA using sgRNAs designed for IL1RN. dCas9-PYL-HA, FLAG-ABI-P300 and IL1RN sgRNAs were transfected into HEK293T cells for 24 hours. Cells were then treated with 100 μM of ABA for another 24 hours followed by the analysis of mRNA levels of six off-target genes using q-PCR. The fold changes were calculated by comparing ABA treated cells to cells treated with DMSO. Error bars represent ±s.e.m. from biological replicates (n=6).
It is known that sgRNA/Cas9 can bind to unintended loci, which can lead to off-target effects. To examine if aberrant binding interferes with the interpretation of results, all reported sites in the genome that could potentially be targeted by the IL1RN sgRNAs used in the studies were checked. Changes in the mRNA levels of six genes having TSS close to the off-target sites were monitored (Table 3) after cells were co-transfected with IL1RN sgRNAs, dCas9-PYL-HA and FLAG-ABI-P300 plasmids followed by ABA treatment for 24 hours.
Total RNA was extracted using the EZNA Total RNA Kit I (Omega Bio-tek, Inc., Norcross, Ga.). qPCR reactions were performed on cDNA prepared from 1,000 ng of total cellular RNA using the High-Capacity cDNA Reverse Transcription Kit (Applied Biosystems Co., Thermo Fisher Scientific, Inc., Foster City, Calif.). […] Analyzed data are reported as the mean±s.e.m. for biological replicates. […]

[6] = system: IL1RN mRNA in HEK293T cells; experiment: qPCR of IL1RN mRNA levels (dCas9-PYL-HA, FLAG-ABI-P300, sgRNAs)
Method: To study how IL1RN expression levels change, total RNAs from the cell lysates generated in the above experiment were purified and then subjected to qPCR analysis to quantify mRNA levels.
Human embryonic kidney cell HEK293T (American Type Culture Collection, Manassas, Va.) was cultured in Dulbecco's modified Eagle's medium (DMEM) (Gibco) with 10% FBS (Atlanta Biologicals), 1× GlutaMax (Gibco, Thermo Fisher Scientific, Inc., Waltham, Mass.), and 1× penicillin/streptomycin (Pen/Strep; Gibco, Thermo Fisher Scientific, Inc., Waltham, Mass.). Cells (100,000/ml) were plated in 24-well or 10-cm cell culture plate the day before transfection. For each well of 24-well plate transfection, 500 ng of dCas9-PYL-HA, 420 ng of FLAG-ABI-P300, and a total amount of 200-ng mix of gRNAs, with a 50-ng per each gRNA, were mixed with 50×(v/w) Opti-MEM (Gibco, Thermo Fisher Scientific, Inc., Waltham, Mass.), then incubate with the same volume of 3 μg PEI-Opti-MEM solution for 20 minutes at room temperature. Then, 100 μL of PEI-combined plasmids were added to every single well of 24-well plate and cultured for 24 hours before experiments were performed. For a 10 cm plate, 1 mL of PEI-combined plasmids were needed. After six hours transfection, cells were washed and incubated for another 1-72 hours before experiments were performed.
Total RNA was extracted using the EZNA Total RNA Kit I (Omega Bio-tek, Inc., Norcross, Ga.). qPCR reactions were performed on cDNA prepared from 1,000 ng of total cellular RNA using the High-Capacity cDNA Reverse Transcription Kit (Applied Biosystems Co., Thermo Fisher Scientific, Inc., Foster City, Calif.). TaqMan qPCR probes (Thermo Fisher Scientific, Inc., Waltham, Mass. IL1RN, Hs00893626; GRM2, Hs00968358; HBA, Hs00361191; MYOD1 Hs02330075; GAPDH, Hs99999905) and Fast Advanced Master Mix (Life Technologies Co., Co., Thermo Fisher Scientific, Inc., Carlsbad, Calif.) were used in multiplexed reactions and 384-well format in a 7900HT Fast Real-Time PCR System (Applied Biosystems Co., Thermo Fisher Scientific, Inc., Foster City, Calif.). All measurements were performed at least in triplicate. Data were analyzed using the SDS software, version 2.4 (Applied Biosystems Co., Thermo Fisher Scientific, Inc., Foster City, Calif.), by the ΔΔCt method: the Ct values of target gene were normalized to Ct values of GAPDH, the folds of target gene expression changes were normalized to experimental controls. Analyzed data are reported as the mean±s.e.m. for biological replicates. In ChIP assays, the Ct values of antibodies pulled down segments were normalized to the Ct values of 10% input.

CC1=CC(=O)CC(C)(C)[C@@]1(O)/C=C/C(C)=C\C(=O)O [ABA, abscisic acid]
luciferase expression, ABA-responsive system [1]: Only the proper combination of inducer with corresponding binding proteins could induce luciferase expression
level of HBA mRNA [2]: increases correspondingly
level of GRM2 mRNA [3]: increases correspondingly
enrichment of FLAG-ABI-P300 at the MYOD1 locus [4]: causes the enrichment
enrichment of H3K27Ac at the MYOD1 locus [4]: causes the enrichment
mRNA levels of six off-target genes [5]: None of the six genes display increases in mRNA levels
IL1RN mRNA levels after washing ([6]; ABA for 12, 24 or 48 hours, then washed): well correlated with the changes in H3K27Ac levels
IL1RN mRNA level with P300 mutant (D1399Y) lacking acetyltransferase activity ([6]; FLAG-ABI-P300 D1399Y, 100 μM ABA for 24 hours): did not increase
IL1RN mRNA level ([6]; cells transfected with ABI-P300, dCas9-PYL and IL1RN sgRNAs, treated with ABA (100 μM, 24 hours)): IL1RN mRNA level increases
IL1RN mRNA when sgRNAs designed for GRM2, HBA or MYOD1 were used ([6]; sgRNAs for GRM2, HBA or MYOD1 in place of IL1RN, 24-hour ABA treatment): no increase in IL1RN mRNA was observed
time at which the IL1RN mRNA level increases ([6]; time course after ABA addition): four hours after ABA addition
time until which IL1RN mRNA continues to increase rapidly ([6]; time course after ABA addition): about 24 hours

— patent US20190256827A1, “EPIGENOME EDITING SYSTEMS AND METHODS” (STC.UNM, priority 2017, published 2019)
